Laboratory results reported in patent US5985885A, “Quinazoline-4-amino-2-(piperidine-1-yl-4-substituted) derivatives having antihypertensive activity, a method for their preparation and their pharmaceutical use” (priority 1996, dated 1999).

Legend:
[1] = target: T1, alpha1A adrenergic receptor (rat GSM) (Rattus norvegicus, UniProt P43140); assay: [3H]-prazosin binding in rat submaxillary glands (GSM); conditions: alpha1A subtype, pH 7.4, 45 min, 25° C., read-out: Inhibition of the binding of [3H]-prazosin IC50
T1 sequence (P43140 1-466): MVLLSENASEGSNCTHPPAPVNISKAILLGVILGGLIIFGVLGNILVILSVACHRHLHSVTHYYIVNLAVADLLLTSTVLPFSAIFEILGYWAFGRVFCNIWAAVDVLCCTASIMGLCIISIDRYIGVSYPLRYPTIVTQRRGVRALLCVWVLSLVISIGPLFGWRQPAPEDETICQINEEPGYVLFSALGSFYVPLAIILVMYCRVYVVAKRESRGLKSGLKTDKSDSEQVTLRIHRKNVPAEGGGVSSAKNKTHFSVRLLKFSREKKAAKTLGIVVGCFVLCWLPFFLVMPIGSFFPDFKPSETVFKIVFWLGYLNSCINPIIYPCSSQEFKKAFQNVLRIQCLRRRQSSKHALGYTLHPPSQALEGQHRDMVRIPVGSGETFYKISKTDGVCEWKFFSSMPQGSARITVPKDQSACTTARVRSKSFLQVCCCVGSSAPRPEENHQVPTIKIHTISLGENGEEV

[2] = target: alpha1A + alpha1C adrenergic receptor (human prostate); assay: [3H]-prazosin binding in human prostate; conditions: alpha1A + alpha1C subtype, pH 7.5, 30 min, 25° C., read-out: Inhibition of the binding of [3H]-prazosin IC50
[3] = target: T2, 5-HT2 receptors (isolated rabbit aorta) (Oryctolagus cuniculus, UniProt G1SYA7); assay: Antagonism of serotonin-induced contraction of isolated rabbit aorta; conditions: isolated rabbit aorta, 37° C., compound 10 min before agonist; limits (p < 0.05)
T2 construct: Four rings formed from rabbit aorta were joined together to form a chain; from tissue; host or cells: isolated rabbit aorta rings
T2 sequence (G1SYA7 1-469): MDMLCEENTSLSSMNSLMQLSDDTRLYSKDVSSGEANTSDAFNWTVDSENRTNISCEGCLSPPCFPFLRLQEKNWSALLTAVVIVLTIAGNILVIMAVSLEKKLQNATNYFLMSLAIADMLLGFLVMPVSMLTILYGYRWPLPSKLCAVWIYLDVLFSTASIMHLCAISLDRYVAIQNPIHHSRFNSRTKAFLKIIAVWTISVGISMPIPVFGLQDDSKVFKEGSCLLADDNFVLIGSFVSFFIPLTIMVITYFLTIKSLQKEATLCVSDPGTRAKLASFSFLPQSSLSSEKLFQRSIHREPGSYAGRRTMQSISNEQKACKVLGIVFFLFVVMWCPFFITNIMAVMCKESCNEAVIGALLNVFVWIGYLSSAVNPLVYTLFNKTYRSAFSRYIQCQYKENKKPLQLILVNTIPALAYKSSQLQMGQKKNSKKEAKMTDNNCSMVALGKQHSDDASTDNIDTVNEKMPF
Method: The antagonist activity of some of the compounds of the invention on the contractile activity of seratonin on isolated rabbit aorta, effected principally by way of the 5-HT2 receptors, is reported here by way of example. The method of Feniuk et al [Br. J. Pharmacol. (1985), 86, 697-704] was used, with slight modifications. Four rings formed from rabbit aorta were joined together to form a chain; the preparation was placed in an isolated organ bath in the presence of Krebs at 37° C. and attached to an isometric transducer, a tension of 2 g being applied and oxygenation was carried out continuously with O2 --CO2 (95-5 v/v). A seratonin concentration(0.3 μM) was used that was capable of causing sub-maximal contraction of the preparation. […] The results obtained in this way are given in Table 4 below which, for several of the compounds of the invention gives IC50 values calculated by the regression method on a set of at least 2 experiments at 5 different concentrations for each of the compounds examined, these being compared with values obtained for several reference compounds.

[4] = test system: alpha1A, alpha1B and alpha1C adrenergic receptor subtypes; assay: [3H]-prazosin binding, alpha1 subtypes together (Table 3 overall); conditions: reference compounds versus compounds of the invention/prazosin
[5] = target: T3, alpha1B adrenergic receptor (rat liver) (Rattus norvegicus, UniProt P15823); assay: [3H]-prazosin binding in rat liver
T3 sequence (P15823 1-515): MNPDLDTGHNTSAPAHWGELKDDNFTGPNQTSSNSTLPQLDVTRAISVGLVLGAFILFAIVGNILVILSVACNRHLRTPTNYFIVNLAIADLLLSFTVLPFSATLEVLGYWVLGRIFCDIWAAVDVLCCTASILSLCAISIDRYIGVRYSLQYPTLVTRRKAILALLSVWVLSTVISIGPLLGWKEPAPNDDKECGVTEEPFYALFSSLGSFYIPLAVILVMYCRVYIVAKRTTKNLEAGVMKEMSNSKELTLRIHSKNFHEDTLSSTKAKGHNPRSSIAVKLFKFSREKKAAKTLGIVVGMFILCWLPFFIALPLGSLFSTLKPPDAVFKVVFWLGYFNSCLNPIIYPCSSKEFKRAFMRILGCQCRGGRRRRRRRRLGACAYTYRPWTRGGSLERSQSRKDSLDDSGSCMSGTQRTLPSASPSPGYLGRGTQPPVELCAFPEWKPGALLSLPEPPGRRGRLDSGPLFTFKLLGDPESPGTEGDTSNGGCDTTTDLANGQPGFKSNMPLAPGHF

O=C(c1ccc(F)cc1)C1CCN(CCn2c(=O)[nH]c3ccccc3c2=O)CC1 [Ketanserine, reference compound]
IC50 [1]: 48.2 nM | IC50 [2]: 270 nM | IC50 [3]: 228 nM | times less powerful (on average) [4]: 10 to 30 times | IC50 [5]: 29.9 nM
